Where a name gives a salt, the structure may show the parent alone.
Legend:
[1] = pH-solubility behaviour of carvedilol free base; format: physicochemical; details: pH values encountered in the distal small intestine and colon
[2] = both R and S isomer forms; cited from earlier work
[3] = Aqueous solubility at 25° C. of carvedilol free base and three salts (Table 13); format: physicochemical
Excerpt: Aliquots were taken out at various time-point, filtered through 0.45 μm Acrodisc GHP filter.

SMILES | solubility [1] | alpha elimination phase [2] | aqueous solubility compared with free base [3]
COc1ccccc1OCCNCC(O)COc1cccc2[nH]c3ccccc3c12 (stereo not drawn) [Carvedilol Free Base] | ≤ 0.1 mg per ml | about 1.5 hours | 
COc1ccccc1OCCNCC(O)COc1cccc2[nH]c3ccccc3c12 (stereo not drawn) [HBr salt, Carvedilol HBr] |  |  | much better aqueous solubility than the free base

From US20050175695A1 (priority 2003, published 2005)
